# Ends that are not written are not given here.
# Tests used:
# [1] = system: THP-1-derived macrophages; experiment: Phagocytosis of E. coli-GFP by THP-1-derived macrophages; format: cell-based, human; details: E. coli-GFP pre-incubated with 1 mg/ml fibrils, 3 h on cells; CytD 2 µg/ml pre-treatment 30 min; confocal microscopy
# HSV-2 = format: cell-based; details: serial dilutions of peptides added to ELVIS cells, infected 1 h later with HSV-2; lacZ enzyme activity one day post-infection; ±SD; one (inactive) to three (active) experiments in triplicates
# [2] = Thioflavin T (ThT) assay of fibril formation; format: physicochemical; details: formation of ThT positive aggregates
Compound,uptake of E. coli-GFP by macrophages [1],"IC50 (antiviral activity, HSV-2) (HSV-2) [µg/mL]",ThT signal (+/-) [2]
"C=C1[C@@H](C)[C@H]2[C@H](Cc3ccccc3)NC(=O)[C@]23[C@H](OC(C)=O)/C=C/[C@@](C)(O)C(=O)[C@@H](C)C/C=C/[C@H]3[C@@H]1O [CytD, Cytochalasin D]",prevented the uptake of any bacteria,,
AAHLPAEFTPAVHASLDKFLA [HBA(111–131)],,> 130,-
ASVSTVL [HBA 131-137],,> 130,+
KFLASVST [HBA 128-135],,> 130,-
LASVSTVL [HBA 130-137],,> 130,+
SVSTVL [HBA 132-137],,> 130,-
SVSTVLTSKYR [HBA 132-142],,> 130,-
